Test results reported in PubChem BioAssay (NCI).
Where “and” joins values, the source holds several entries; their conditions need not be identical. Equal entries are not always repeated.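 Test compounds were applied to cells in 96-well plates for 48 hours at 5 doses. Here, GI50 denotes the concentration required for 50% inhibition of growth. The concentration for full growth arrest is given as TGI.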

Columns and labels:
Assay in all cases: growth of human tumour cells (NCI), 48 h
[1] = test system: TK-10 renal
[2] = test system: NCI-H226 lung
[3] = test system: RXF 393 renal
[4] = test system: SK-OV-3 ovarian
[5] = test system: MALME-3M melanoma
[6] = test system: BT-549 breast
[7] = test system: IGROV1 ovarian
[8] = test system: KM12 colon
[9] = test system: SNB-19 CNS
[10] = test system: A498 renal

Structure (SMILES) | GI50 [1] | TGI [1] | GI50 [2] | TGI [2] | GI50 [3] | TGI [3] | GI50 [4] | TGI [4] | GI50 [5] | TGI [5] | GI50 [6] | TGI [6] | GI50 [7] | TGI [7] | GI50 [8] | TGI [8] [µM] | GI50 [9] | TGI [9] | GI50 [10] | TGI [10]
CC[C@H](Nc1nc(N)nc(C)c1C#N)c1nc2cccc(CN(C)c3ncc(C(=O)NO)cn3)c2c(=O)n1-c1ccccc1 | 0.681 µM | 3.85 µM | 1.18 µM | 7.07 µM | 0.47 µM | 1.33 µM | 0.969 µM | 3.22 µM | 0.129 µM | 2.47 µM | 2.26 µM | 12.5 µM | 0.569 µM | 2.28 µM | 1.26 µM | 5.21 | 0.827 µM | 6.4 µM | 0.295 µM | 1.13 µM
CCN(CC)c1ccc(/C=C/c2cc(C)c3ccccc3n2)cc1 | 4.47 µM | 13.8 µM | 11.9 µM | 91.3 µM | 3.43 µM | 9.44 µM | 3.41 µM | 17.8 µM | 3.39 µM | 22.8 µM | 10.3 µM | 62.9 µM | 2.81 µM | 25.7 µM | 2.31 µM | 13.2 | 5.92 µM | > 100 µM | 2.32 µM | 15.4 µM
CC(C)(O)c1ccc(N2CCN(c3nnc(Cc4ccccc4)c4ccccc34)CC2)nc1 | 13.4 µM | 38.1 µM | 5.76 µM | 22.4 µM | 6.76 µM | 23.6 µM | 18.7 µM | 61.9 µM | 5.28 µM | 17.9 µM | 6.28 µM | 24 µM | 12.1 µM | 28.4 µM | 13.2 µM | 29.5 | 15.8 µM | 67.1 µM | 13.9 µM | 42.5 µM
O=C1c2ccccc2C(=O)N1CC1(C(=O)O)NCCS1(=O)=O (stereo not drawn) | – | > 100 µM | – | > 100 µM | – | > 100 µM | – | > 100 µM | – | > 100 µM | – | > 100 µM | – | > 100 µM | – | > 100 | – | > 100 µM | – | > 100 µM
COc1ccc2c(c1)CCC1C2CCC2(C)C1CCC2(O)CNC(=O)CCCCC1CCSS1 (stereo not drawn) | 17.7 µM | 57 µM | 13.3 µM | > 100 µM | 11.7 µM | 44 µM | – | – | > 100 µM | > 100 µM | 19.3 µM | 98.4 µM | 22.7 µM | > 100 µM | 2.26 µM | > 100 | 18.1 µM | 51.1 µM | 73.4 µM | > 100 µM
Fc1ccc2[nH]cc(Cc3c[nH]c4ccc(F)cc34)c2c1 | 28.9 µM | 68.6 µM | 31.3 µM | 92.3 µM | 18.2 µM | 42.8 µM | – | – | 16.7 µM | 33.8 µM | 13.9 µM | 30.3 µM | 16.9 µM | 41.6 µM | 12 µM | 30.2 | 20.2 µM | 51.9 µM | 15 µM | 31.8 µM
COc1ccc(C(=O)/C=C/c2ccc(Cl)cc2)cc1S(=O)(=O)Nc1c(N)nc(SC)[nH]c1=O | 2.98 µM | 9.44 µM | 2.34 µM | 8.36 µM | 1.6 µM | 3.26 µM | 3.65 µM | 13.4 µM | 3.02 µM | 9.93 µM | 1.63 µM | 3.17 µM | 3.25 µM | 11.9 µM | 2.09 µM | 4.51 | 2.52 µM | 8.34 µM | 10.6 µM | 22.4 µM
O=S(=O)(c1ccc(NC(=S)NCc2cccnc2)cc1)N1CCCCC1 | 47.5 µM | > 100 µM | 39.5 µM | > 100 µM | 72.4 µM | > 100 µM | > 100 µM | > 100 µM | 84.9 µM | > 100 µM | > 100 µM | > 100 µM | 23.3 µM | > 100 µM | – | – | 9.5 µM | > 100 µM | 15 µM | > 100 µM
Cc1cc(N2CCCCC2)nc(N(CCNc2ccnc3cc(Cl)ccc23)Cc2ccco2)n1 | 1.94 µM | 4.08 µM | 1.69 µM | 3.96 µM | 1.56 µM | 3.32 µM | 2.15 µM | 4.9 µM | 1.98 µM | 3.65 µM | 1.82 µM | 3.5 µM | 1.28 µM | 3.65 µM | 2.07 µM | 4.71 | 3.26 µM | 12 µM | 1.92 µM | 5.09 µM
CC1=C(C(=O)OCc2ccccc2)C(c2ccc3c(c2)OCO3)n2c(nc3ccccc32)N1 (stereo not drawn) | > 100 µM | > 100 µM | > 100 µM | > 100 µM | 0.305 µM | > 100 µM | 0.467 µM | > 100 µM | 0.37 µM | > 100 µM | – | > 100 µM | 0.644 µM | > 100 µM | 0.334 µM | > 100 | 0.54 µM | > 100 µM | 0.362 µM | > 100 µM
O=C(O)[C@@H]1C2CC([C@@H]1C(=O)O)[C@H](N1C(=O)CCC1=O)[C@@H]2Br (stereo partly drawn) | – | > 100 µM | – | > 100 µM | – | > 100 µM | – | > 100 µM | – | > 100 µM | – | > 100 µM | – | > 100 µM | – | > 100 | – | > 100 µM | – | > 100 µM
Cc1ccc(C(=O)Nc2ccc(S(=O)(=O)O)c3cc(S(=O)(=O)O)cc(S(=O)(=O)O)c23)cc1NC(=O)c1cccc(N)c1 | – | > 100 µM | – | > 100 µM | – | > 100 µM | – | > 100 µM | – | > 100 µM | – | > 100 µM | – | > 100 µM | – | > 100 | – | > 100 µM | – | > 100 µM
N#CSc1ncnc2nc[nH]c12 | 4.17 µM | > 100 µM | > 100 µM | > 100 µM | 21.6 µM | > 100 µM | 2.42 µM | > 100 µM | 10.6 µM | > 100 µM | > 28.7 µM | > 100 µM | 35.1 µM | > 100 µM | 3.26 µM | > 48.5 | > 100 µM | > 100 µM | 24.1 µM | > 100 µM
O=C(Nc1cccc(Cl)c1)Nc1ncc(CCNc2ncnc3ccsc23)s1 | 3.46 µM and 4.18 µM | 16.1 µM and > 10 µM | 1.86 µM and 2.06 µM | 8.98 µM and > 10 µM | 1.93 µM and 2.16 µM | 10.1 µM and > 10 µM | 9.12 µM and 4.86 µM | 24.1 µM and > 10 µM | 3.23 µM and 4.07 µM | 26 µM and > 10 µM | 2.07 µM and 1.68 µM | 11.8 µM and 7.75 µM | 7.43 µM and 3.6 µM | 44.1 µM and > 10 µM | 0.12 µM and 0.0657 µM | > 35.3 | 11.2 µM and > 10 µM | 26.9 µM and > 10 µM | 2.51 µM and 1.17 µM | 17.9 µM and > 10 µM
